# Data reported in patent publication US6046219A, “Method for the treatment of conditions mediated by collagen formation together with cell proliferation by application of inhibitors of protein hydroxylation” (Cornell Research Foundation, Inc., priority 1997, dated 2000).
# Assays:
# [1] = molecular target: T1, cellular human deoxyhypusyl hydroxylase (Homo sapiens, UniProt Q9BU89); assay: Cellular human deoxyhypusyl hydroxylase (DOHH assay, 3H-spermidine labeling); type: cell-based
# T1 construct: endogenous in cells; host or cells: cultured human cells (smooth muscle cells, B-lymphocytes)
# T1 sequence (Q9BU89 1-302): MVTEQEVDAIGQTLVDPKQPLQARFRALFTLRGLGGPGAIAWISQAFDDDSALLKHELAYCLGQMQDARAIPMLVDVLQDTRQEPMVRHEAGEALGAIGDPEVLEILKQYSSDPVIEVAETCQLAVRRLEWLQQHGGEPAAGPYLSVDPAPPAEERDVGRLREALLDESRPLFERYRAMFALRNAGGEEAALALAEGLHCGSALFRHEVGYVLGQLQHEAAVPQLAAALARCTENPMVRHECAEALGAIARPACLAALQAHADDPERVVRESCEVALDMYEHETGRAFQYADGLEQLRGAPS
# Excerpt: (§1) The inhibitory action of the substances according to the invention, for example on collagen secretion or cell proliferation, can be tested in direct assays of the enzymes mediating the pivotal protein hydroxylations for these biological processes, such as prolyl 4-hydroxylase and deoxyhypusyl hydroxylase. This entails the enzymatic hydroxylation of the appropriate protein precursor, either by the cellular or the purified enzyme, in the presence or absence of compounds of Formulae (I) or (II), with concomitant determination of co-substrate utilization by these enzymes or subsequent isolation of the hydroxylated amino acid and its unhydroxylated precursor. In this manner, the inhibitory potency of any given compound can be measured in the cell-free system, in cell culture, or in tissue, and is expressed as the inhibitory dose that gives a 50% reduction of the enzyme-mediated reaction (ID50). Enzyme is tested in analogy to the method of A. Abbruzzese, H. M. Hanauske-Abel, et al., Biochem. Biophys. Acta, 1077, 159-166 (1991) and of K. Majamaa, H. M. Hanauske-Abel, et al., Eur. J. Biochem. 138, 239-245 (1984), which are hereby incorporated by reference. Table III lists the ID50 values of some of the compounds according to the invention, using purified human prolyl 4-hydroxylase and cellular human deoxyhypusyl hydroxylase as representative protein hydroxylases.
# The inhibiting effect of hydroxypyridones on the eIF-5A-hydroxylating enzyme was studied in cultured human cells (i.e. smooth muscle cells, B-lymphocytes).
# The cellular conversion of the precursor deoxyhypusine to the hydroxylated hypusine in cells was examined, after preincubation with the inhibitor for 60 minutes, by labeling the human cells with ^3 H-spermidine (5 μCi/ml) in 25 cm^2 flasks (1×10^6 cells/flask) for 24 hours prior to cell lysis, precipitation with 10% TCA containing 1 mM each of putrescine, spermidine, and spermine, and hydrolysis in 6 N HCl at 110° C. for 16 hours. The hydrolysate was analyzed for labeled amino acids on an amino acid analyzer by published methods (Park et al., J. Biol. Chem., 257:7217-7222 (1982), which is hereby incorporated by reference). The retention of purified hypusine and deoxyhypusine was determined from standards.
# [2] = molecular target: T2, purified human prolyl 4-hydroxylase (Homo sapiens, UniProt P13674); assay: Assay of purified human prolyl 4-hydroxylase (14CO2 release from 2-oxoglutarate, cell-free); type: biochemical
# T2 construct: made in house; host or cells: Spodoptera frugiperda insect cells (baculovirus, co-expression of α- and β-subunits)
# Procedure: The effect on the enzyme was determined in a cell-free system by measuring the oxidative decarboxylation of its cofactor 2-oxoglutarate via release of radiolabeled carbon dioxide in a standard reaction mixture also containing ascorbate, ferrous sulfate, and unhydroxylated peptide substrate.
# as §1
# The inhibiting effect of hydroxypyridones on the collagen-hydroxylating enzyme was studied in a cell-free system.
# Assay of purified human prolyl 4-hydroxylase
# The native α2 β2 -tetrameric enzyme was purified to homogeneity by poly(L-proline) affinity chromatography and DEAE chromatography from the supernatant of Spodoptera frugiperda insect cells cotransfected with recombinant baculovirus transfer vectors for both the human α- and β-subunits. Enzyme activity was determined by trapping of ^14 CO2 released from 2-oxo[1-^14 C][glutarate] according to the procedure of Majamaa, et al., Eur. J. Biochem., 138:239-245 (1984), which is hereby incorporated by reference. Briefly, all incubations were run for 60 minutes at 37° C. in a final volume of 1.0 ml per test sample, containing 0.1 μg enzyme, 0.1 mg heat-denatured (Pro-Pro-Gly)10 ×9 H2 O as hydroxylatable substrate, 0.1 mM 2-oxo[1-^14 C][glutarate] adjusted to 60,000 dpm by mixing with the unlabeled 2-oxoglutarate as cosubstrate, and cofactors (1.6 mM ascorbate, 0.05 mM ferrous sulfate, 0.08 mM dithiothreitol, 2 mg bovine serum albumin, 5 μL catalase). Assays are performed with only one of the active compounds at any given time.
# T2 sequence (P13674 18-534): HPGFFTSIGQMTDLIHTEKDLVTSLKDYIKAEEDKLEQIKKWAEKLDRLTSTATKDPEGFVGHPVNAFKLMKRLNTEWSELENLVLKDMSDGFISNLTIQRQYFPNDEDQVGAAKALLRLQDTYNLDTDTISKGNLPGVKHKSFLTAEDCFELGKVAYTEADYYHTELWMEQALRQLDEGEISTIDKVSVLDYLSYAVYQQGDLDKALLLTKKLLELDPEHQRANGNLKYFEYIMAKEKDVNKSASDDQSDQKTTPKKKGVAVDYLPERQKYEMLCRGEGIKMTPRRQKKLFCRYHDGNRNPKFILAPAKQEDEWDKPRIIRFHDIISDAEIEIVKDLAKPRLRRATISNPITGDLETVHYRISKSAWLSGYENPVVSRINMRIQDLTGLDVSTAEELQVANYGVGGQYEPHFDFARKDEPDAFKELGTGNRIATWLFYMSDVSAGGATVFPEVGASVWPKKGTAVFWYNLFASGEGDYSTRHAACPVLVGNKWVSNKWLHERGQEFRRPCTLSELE
# T2 sequence (P07237 18-508 partner): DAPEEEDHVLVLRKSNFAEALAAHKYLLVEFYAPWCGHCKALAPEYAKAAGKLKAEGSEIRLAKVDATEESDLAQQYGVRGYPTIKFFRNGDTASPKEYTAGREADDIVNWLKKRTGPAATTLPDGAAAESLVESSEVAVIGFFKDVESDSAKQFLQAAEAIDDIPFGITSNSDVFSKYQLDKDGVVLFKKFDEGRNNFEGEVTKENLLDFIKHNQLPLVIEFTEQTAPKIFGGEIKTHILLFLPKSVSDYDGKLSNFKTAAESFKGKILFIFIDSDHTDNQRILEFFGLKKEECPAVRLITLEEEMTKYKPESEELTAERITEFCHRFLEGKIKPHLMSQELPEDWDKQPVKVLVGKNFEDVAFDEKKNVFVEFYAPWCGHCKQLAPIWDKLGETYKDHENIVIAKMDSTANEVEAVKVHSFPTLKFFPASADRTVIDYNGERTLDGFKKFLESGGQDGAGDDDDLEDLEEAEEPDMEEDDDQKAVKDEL
smiles,measurement,setting,value
N[C@@H](Cn1ccc(=O)c(O)c1)C(=O)O [L-Mimosine],inhibition of deoxyhypusyl hydroxylase,"[1]; FIG. 3, assayed in vitro",directly inhibit
same,Deoxyhypusyl hydroxylase ID50 (cellular),"[1]; cellular human enzyme, inhibitory dose that gives 50% reduction of the enzyme-mediated reaction, unit assumed",65 µM
same,inhibition of purified human prolyl 4-hydroxylase,"[2]; cell-free system, FIG. 1",directly inhibit
same,Prolyl 4-hydroxylase ID50 (purified),"[2]; purified human enzyme, inhibitory dose that gives 50% reduction of the enzyme-mediated reaction, unit assumed",120 µM
